Laboratory results taken from PubChem BioAssay (NCI).
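Interpolation was linear, between the two tested concentrations surrounding the appropriate level; five concentrations were tested over 48 hours in 96-well plates. The concentration for 50% growth inhibition is given as GI50. At the TGI there is no net growth.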

Experiments:
Assay in all cases: NCI anticancer screen, dose series, 48 h
786-0 renal = tested on: 786-0 renal
A498 renal = tested on: A498 renal
A549 NSCLC = tested on: A549 NSCLC
ACHN renal = tested on: ACHN renal
BT-549 breast = tested on: BT-549 breast
CAKI-1 renal = tested on: CAKI-1 renal
CCRF-CEM leukemia = tested on: CCRF-CEM leukemia
COLO 205 colon = tested on: COLO 205 colon
DU-145 prostate = tested on: DU-145 prostate
EKVX NSCLC = tested on: EKVX NSCLC
HCC-2998 colon = tested on: HCC-2998 colon
HCT-116 colon = tested on: HCT-116 colon
HCT-15 colon = tested on: HCT-15 colon
HL-60(TB) leukemia = tested on: HL-60(TB) leukemia
HOP-92 NSCLC = tested on: HOP-92 NSCLC
HS 578T breast = tested on: HS 578T breast
HT29 colon = tested on: HT29 colon
IGROV1 ovarian = tested on: IGROV1 ovarian
K-562 leukemia = tested on: K-562 leukemia
KM12 colon = tested on: KM12 colon
LOX IMVI melanoma = tested on: LOX IMVI melanoma
M14 melanoma = tested on: M14 melanoma
MALME-3M melanoma = tested on: MALME-3M melanoma
MCF7 breast = tested on: MCF7 breast
MDA-MB-231 breast = tested on: MDA-MB-231 breast
MDA-MB-435 = tested on: MDA-MB-435
MDA-N = tested on: MDA-N
MOLT-4 leukemia = tested on: MOLT-4 leukemia
NCI-H226 lung = tested on: NCI-H226 lung
NCI-H23 lung = tested on: NCI-H23 lung
NCI-H460 lung = tested on: NCI-H460 lung
NCI-H522 lung = tested on: NCI-H522 lung
NCI/ADR-RES ovarian = tested on: NCI/ADR-RES ovarian
OVCAR-3 ovarian = tested on: OVCAR-3 ovarian
OVCAR-4 ovarian = tested on: OVCAR-4 ovarian
OVCAR-5 ovarian = tested on: OVCAR-5 ovarian
OVCAR-8 ovarian = tested on: OVCAR-8 ovarian
PC-3 prostate = tested on: PC-3 prostate
RPMI-8226 leukemia = tested on: RPMI-8226 leukemia
RXF 393 renal = tested on: RXF 393 renal
SF-268 CNS = tested on: SF-268 CNS
SF-295 CNS = tested on: SF-295 CNS
SF-539 CNS = tested on: SF-539 CNS
SK-MEL-2 melanoma = tested on: SK-MEL-2 melanoma
SK-MEL-28 melanoma = tested on: SK-MEL-28 melanoma
SK-MEL-5 melanoma = tested on: SK-MEL-5 melanoma
SK-OV-3 ovarian = tested on: SK-OV-3 ovarian
SN12C renal = tested on: SN12C renal
SNB-19 CNS = tested on: SNB-19 CNS
SNB-75 CNS = tested on: SNB-75 CNS
SW-620 colon = tested on: SW-620 colon
T-47D breast = tested on: T-47D breast
TK-10 renal = tested on: TK-10 renal
U251 CNS = tested on: U251 CNS
UACC-257 melanoma = tested on: UACC-257 melanoma
UACC-62 melanoma = tested on: UACC-62 melanoma
UO-31 renal = tested on: UO-31 renal
HOP-62 NSCLC = tested on: HOP-62 NSCLC
SR leukemia = tested on: SR leukemia

Cc1cc(N(C)C)c2ccccc2[n+]1CCCCCCCCCC[n+]1c(C)cc(N(C)C)c2ccccc21
TGI (786-0 renal): 19.5 µM | TGI (A498 renal): 14 µM | TGI (A549 NSCLC): 18 µM | TGI (ACHN renal): 6.34 µM | TGI (BT-549 breast): 15.4 µM | TGI (CAKI-1 renal): 20 µM | TGI (CCRF-CEM leukemia): 13.5 µM | TGI (COLO 205 colon): 6.07 µM | TGI (DU-145 prostate): 16.2 µM | TGI (EKVX NSCLC): 35.3 µM | TGI (HCC-2998 colon): 13.5 µM | TGI (HCT-116 colon): 12.4 µM | TGI (HCT-15 colon): 14.4 µM | TGI (HL-60(TB) leukemia): 2180 nM | TGI (HOP-92 NSCLC): 5.44 µM | TGI (HS 578T breast): > 95.3 µM | TGI (HT29 colon): > 35 µM | TGI (IGROV1 ovarian): > 20.6 µM | TGI (K-562 leukemia): > 35.3 µM | TGI (KM12 colon): 1.61 µM | TGI (LOX IMVI melanoma): 3.24 µM | TGI (M14 melanoma): 12 µM | TGI (MALME-3M melanoma): > 41.6 µM | TGI (MCF7 breast): 26.3 µM | TGI (MDA-MB-231 breast): 6.15 µM | TGI (MDA-MB-435): 3.26 µM | TGI (MDA-N): 2.73 µM | TGI (MOLT-4 leukemia): 13.8 µM | TGI (NCI-H226 lung): > 100 µM | TGI (NCI-H23 lung): 5.32 µM | TGI (NCI-H460 lung): 13 µM | TGI (NCI-H522 lung): > 29.7 µM | TGI (NCI/ADR-RES ovarian): 43.9 µM | TGI (OVCAR-3 ovarian): 10.5 µM | TGI (OVCAR-4 ovarian): 22.2 µM | TGI (OVCAR-5 ovarian): 15.6 µM | TGI (OVCAR-8 ovarian): 16 µM | TGI (PC-3 prostate): 7.48 µM | TGI (RPMI-8226 leukemia): 4.33 µM | TGI (RXF 393 renal): 35 µM | TGI (SF-268 CNS): 33.3 µM | TGI (SF-295 CNS): 8.95 µM | TGI (SF-539 CNS): 8.15 µM | TGI (SK-MEL-2 melanoma): 4.98 µM | TGI (SK-MEL-28 melanoma): 3.54 µM | TGI (SK-MEL-5 melanoma): 1.07 µM | TGI (SK-OV-3 ovarian): 5.81 µM | TGI (SN12C renal): 4.72 µM | TGI (SNB-19 CNS): 8.19 µM | TGI (SNB-75 CNS): 8.91 µM | TGI (SW-620 colon): 16.5 µM | TGI (T-47D breast): 15.2 µM | TGI (TK-10 renal): 18 µM | TGI (U251 CNS): 11.5 µM | TGI (UACC-257 melanoma): 2.3 µM | TGI (UACC-62 melanoma): 3.35 µM | TGI (UO-31 renal): 13.1 µM

CCOC(=O)c1c2cccccc-2nc1Nc1cccc2c(C)ccnc12
TGI (786-0 renal): > 10 µM | TGI (A498 renal): > 10 µM | TGI (A549 NSCLC): > 10 µM | TGI (ACHN renal): > 10 µM | TGI (BT-549 breast): > 10 µM | TGI (CAKI-1 renal): > 10 µM | TGI (CCRF-CEM leukemia): > 10 µM | TGI (COLO 205 colon): > 10 µM | TGI (DU-145 prostate): > 10 µM | TGI (EKVX NSCLC): > 10 µM | TGI (HCC-2998 colon): > 10 µM | TGI (HCT-116 colon): > 10 µM | TGI (HCT-15 colon): > 10 µM | TGI (HL-60(TB) leukemia): > 10000 nM | TGI (HOP-62 NSCLC): > 10 µM | TGI (HOP-92 NSCLC): > 10 µM | TGI (HS 578T breast): > 10 µM | TGI (HT29 colon): > 10 µM | TGI (IGROV1 ovarian): > 10 µM | TGI (K-562 leukemia): > 10 µM | TGI (KM12 colon): > 10 µM | TGI (LOX IMVI melanoma): > 10 µM | TGI (M14 melanoma): > 10 µM | TGI (MALME-3M melanoma): > 10 µM | TGI (MCF7 breast): > 10 µM | TGI (MDA-MB-231 breast): > 10 µM | TGI (MDA-MB-435): > 10 µM | TGI (MDA-N): > 10 µM | TGI (MOLT-4 leukemia): > 10 µM | TGI (NCI-H226 lung): > 10 µM | TGI (NCI-H23 lung): > 10 µM | TGI (NCI-H460 lung): > 10 µM | TGI (NCI/ADR-RES ovarian): > 10 µM | TGI (OVCAR-3 ovarian): > 10 µM | TGI (OVCAR-4 ovarian): > 10 µM | TGI (OVCAR-5 ovarian): > 10 µM | TGI (OVCAR-8 ovarian): > 10 µM | TGI (PC-3 prostate): > 10 µM | TGI (RPMI-8226 leukemia): > 10 µM | TGI (RXF 393 renal): > 10 µM | TGI (SF-268 CNS): > 10 µM | TGI (SF-295 CNS): > 10 µM | TGI (SF-539 CNS): > 10 µM | TGI (SK-MEL-2 melanoma): > 10 µM | TGI (SK-MEL-28 melanoma): > 10 µM | TGI (SK-MEL-5 melanoma): > 10 µM | TGI (SK-OV-3 ovarian): > 10 µM | TGI (SN12C renal): > 10 µM | TGI (SNB-19 CNS): > 10 µM | TGI (SR leukemia): > 10 µM | TGI (SW-620 colon): > 10 µM | TGI (T-47D breast): > 10 µM | TGI (TK-10 renal): > 10 µM | TGI (U251 CNS): > 10 µM | TGI (UACC-257 melanoma): > 10 µM | TGI (UACC-62 melanoma): > 10 µM | TGI (UO-31 renal): > 10 µM

CN(Cc1cnc2nc(N)nc(N)c2n1)c1ccc(C(=O)N[C@@H](CCS(=O)(=O)O)C(=O)O)cc1
GI50 (786-0 renal): 95.5 nM | TGI (786-0 renal): > 100 µM | TGI (A498 renal): > 100 µM | TGI (A549 NSCLC): > 100 µM | TGI (ACHN renal): > 100 µM | TGI (BT-549 breast): > 100 µM | TGI (CAKI-1 renal): > 100 µM | TGI (CCRF-CEM leukemia): > 100 µM | TGI (COLO 205 colon): > 100 µM | GI50 (DU-145 prostate): 1310 nM | TGI (DU-145 prostate): > 100 µM | TGI (EKVX NSCLC): > 100 µM | TGI (HCC-2998 colon): > 100 µM | TGI (HCT-15 colon): > 100 µM | TGI (HOP-62 NSCLC): > 100 µM | TGI (HOP-92 NSCLC): > 100 µM | TGI (HS 578T breast): > 100 µM | TGI (HT29 colon): > 100 µM | TGI (IGROV1 ovarian): > 100 µM | TGI (K-562 leukemia): > 100 µM | TGI (KM12 colon): > 100 µM | TGI (LOX IMVI melanoma): > 100 µM | TGI (M14 melanoma): > 100 µM | TGI (MALME-3M melanoma): > 100 µM | TGI (MCF7 breast): > 100 µM | TGI (MDA-MB-231 breast): > 100 µM | TGI (MDA-MB-435): > 100 µM | TGI (MDA-N): > 100 µM | TGI (MOLT-4 leukemia): > 100 µM | TGI (NCI-H226 lung): > 100 µM | TGI (NCI-H23 lung): > 100 µM | TGI (NCI-H460 lung): > 100 µM | TGI (NCI-H522 lung): > 100 µM | TGI (NCI/ADR-RES ovarian): > 100 µM | TGI (OVCAR-3 ovarian): > 100 µM | TGI (OVCAR-4 ovarian): > 100 µM | TGI (OVCAR-8 ovarian): > 55.3 µM | TGI (PC-3 prostate): > 100 µM | TGI (RPMI-8226 leukemia): > 100 µM | TGI (RXF 393 renal): 1.44 µM | TGI (SF-268 CNS): > 100 µM | TGI (SF-295 CNS): > 100 µM | TGI (SF-539 CNS): > 100 µM | TGI (SK-MEL-2 melanoma): > 100 µM | TGI (SK-MEL-28 melanoma): > 100 µM | TGI (SK-MEL-5 melanoma): > 100 µM | TGI (SK-OV-3 ovarian): > 100 µM | TGI (SN12C renal): > 100 µM | TGI (SNB-19 CNS): > 100 µM | GI50 (SNB-75 CNS): 18.2 µM | TGI (SNB-75 CNS): > 100 µM | TGI (SR leukemia): > 100 µM | TGI (SW-620 colon): > 100 µM | TGI (T-47D breast): > 100 µM | TGI (TK-10 renal): > 100 µM | TGI (U251 CNS): > 100 µM | TGI (UACC-257 melanoma): > 100 µM | TGI (UACC-62 melanoma): > 100 µM | TGI (UO-31 renal): > 100 µM
